Reference: patent US20140142170A1, “COMPOSITION AND METHOD FOR INFLUENCING ENERGY METABOLISM AND TREATING METABOLIC AND OTHER DISORDERS” (SIRTUIN VALLEY OY, priority 2010, published 2014)
“And” between values parts separate entries of the source, which are not always exact repeats. Identical values can stand only once. “Also recorded” adds a separate entry of the source.

What was measured:
Type in all cases: cell-based
SIRT1 = SIRT1 protein expression, immunoblot and densitometry in 3T3 L1 preadipocytes; details: 24 hours; for SIRT1 protein expression compared to control: 3T3 L1 cells, 60 μM each compound; for SIRT1 protein expression vs control: 3T3L1 preadipocytes, 100 μM
Experimental: 3T3L1 cells were purchased from American Type Culture Collection (Manassas, Va., USA) and cultured in DMEM media containing 4.5 g/l glucose supplemented with 10% fetal bovine serum (Hyclone), 2 mM L-glutamine (Gibco), 100 U/ml penicillin, and 100 μg/ml streptomycin (Gibco). The cells were cultured at 37° C. in a humidified atmosphere with 10% CO2.
The 3T3L1 cells were plated at 6×10^4 cells/well in 12 well plates and incubated at 37° C. in a humidified atmosphere with 10% CO2. The media was removed after 24 hours and the cells were treated with 60 μM GR24 individually and in combination with […] and 60 μM pinosylvin, and incubated for 24 hours at 37° C. in a humidified atmosphere with 10% CO2. The media was removed, cells were washed with PBS, and cell lysates were collected on ice. Proteins were extracted using RIPA buffer along with protease and phosphatase inhibitors. Lysates were centrifuged for 30 min at high speed; supernatant was collected and stored at […] until further analysis. The vehicle controls were 3T3 L1 cells without any treatment with drugs or other compounds. The drugs or compounds that were used in all the experiments were dissolved or diluted in dimethylsulfoxide (DMSO) as diluent. In all experiments, the controls were treated with the same volume of DMSO as was used to dissolve drugs or compounds in compound-treated cells to show and ensure that the actual change in protein expression in different treatments was due solely to the compounds or combination of compounds and not to the DMSO.
Protein concentrations were measured using a BCA (bicinchoninic acid) protein assay kit (Cat.#23225; Pierce, Rockford, Ill.). Twenty (20) μg/lane of total cellular protein samples containing NuPAGE LDS sample buffer (Invitrogen) and reducing agent were loaded into 4-12% NuPAGE Bis-Tris gels (Invitrogen), subjected to gel electrophoresis, and transferred to polyvinylidene fluoride membranes (Amersham). For SIRT1 proteins, membranes were blocked in 0.05% TBS-Tween with 3% milk for 1 hour, incubated overnight at +4° C. with SIRT1 primary antibodies (Cat.#07-131, Millipore). For phospho-AMPKα and AMPKα proteins, blocking was done for 1 hour in 0.1% TBS-Tween with 5% milk. The membranes were incubated overnight at +4° C. with phospho-AMPKα (Cat. #2535, Cell Signaling) and AMPKα (Cat.#2532, Cell Signaling) primary antibodies. Horseradish peroxidase-conjugated anti-rabbit antibodies (Cat. #NA934V GE Health Care, Amersham, U.K) were used as secondary antibodies. For α-tubulin (loading control), membranes were blocked in 0.05% PBS-Tween with 3% milk for 1 hour, incubated with α-tubulin (Cat.# B-5-1-2, Sigma) primary antibodies for 1 hour at room temperature and horseradish peroxidase-conjugated anti-mouse (Cat. # NA 931V GE Health Care, Amersham, U.K.) IgG antibodies were used as secondary antibodies.
The membranes were developed using chemiluminescence (ECL plus, GE Health Care), and images were captured in an Image Quant RT-ECL machine (version 1.0.1; GE Health Care). Densitometry and quantification of the bands were done by applying Quantity One software (Bio-Rad). The expression levels of the proteins were normalized to α-tubulin protein levels.
3T3L1 cells were purchased from American Type Culture Collection (Manassas, Va., USA) and cultured in DMEM media containing 4.5 g/l glucose supplemented with 10% fetal bovine serum (Hyclone), 2 mM L-glutamine (Gibco) and 100 U/ml penicillin, 100 μg/ml streptomycin (Gibco). The cells were cultured at 37° C. in a humidified atmosphere with 10% CO2. 3T3L1 preadipocytes were plated at 1×10^5 cells/well in 6 well plates and incubated at 37° C. in a humidified atmosphere with 10% CO2. […] In all experiments, the controls were treated with the same volume of DMSO as was used to dissolve compounds in compound-treated cells to show and ensure that the actual change in protein expression in different treatments was only due to the compounds DMSO. […]

phospho-ACC = phospho-ACC expression, immunoblot in 3T3 L1 preadipocytes; details: 24 hours; for phosphorylated ACC expression vs control: 3T3L1 preadipocytes, 100 μM
[1] = tested on: acetyl-CoA carboxylase (ACC); assay: ACC expression, immunoblot in 3T3L1 preadipocytes; details: 100 μM, 24 hours

Structure (SMILES): CC1=CC(O/C=C2/C(=O)O[C@@H]3c4ccccc4C[C@H]23)OC1=O (stereo partly shown) [GR24]
- SIRT1 protein expression compared to control (SIRT1): significant increase; also recorded: significantly (*P<0.05) increased
- SIRT1 protein expression compared to control (SIRT1; listed as GR 24): significant increase; also recorded: significantly (*P<0.05) increased
- SIRT1 expression compared with resveratrol (SIRT1; 3T3 L1 preadipocytes, 60 μM): greater than did resveratrol
- SIRT1 protein expression compared to control (100%) (SIRT1; 3T3 L1 preadipocytes, 60 μM, control = 100%): 168% and 164% and 198% and 220% and 149%
- SIRT1 protein expression vs control (SIRT1): significantly increased
- SIRT1 protein expression vs control (SIRT1; listed as GR 24): increase
- phospho-ACC expression (phosphorylation of ACC) compared to control (phospho-ACC; 3T3 L1 preadipocytes, 60 μM): no change
- phosphorylated ACC expression vs control (phospho-ACC): down-regulated
- phosphorylated ACC expression vs control (phospho-ACC; listed as GR 24): decrease
- ACC protein expression vs control [1]: down-regulated
